# Experimental data taken from PubChem BioAssay AID2060622 (Molecular Pharmacology Branch, DTP, NCI, 2025).
# Several values for one entry are separate records, joined by “and”; a condition that tells them apart may be missing. Equal values may be shown once.
# System: 242566-281-R-J2-PDC complex spheroid viability
# Experiment: Anticancer human tumor 242566-281-R-J2-PDC patient-derived pancreatic carcinoma cell line growth inhibition [CLK]
# Conditions: for viability, T/C: stronger effect = lower value
# Description: A high-throughput screen of multi-cell type tumor spheroids was designed to identify active combinations of […] and targeted small molecules. Complex spheroids include a stromal component modeled by human endothelial cells (HUVEC) and fibroblasts modeled by human mesenchymal stem cells (MSCs). The concentration ranges selected for each drug and investigational agent were based upon clinically achievable concentrations if the clinical Cmax of the agent was known.
# Compounds. The drugs and investigational agents: cirtuvivint (SM08502; NSC835563), CC-671 (NSC850746), vemurafenib (NSC761431), tapotoclax (NSC804041), sotorasib (NSC818433), adagrasib (NSC831453), MRTX-1133 (NSC836407), BAY2416964 (NSC825713), copanlisib (NSC816437), inavolisib (NSC800729), abemaciclib (NSC768073), osimertinib (NSC779217), entinostat (NSC756642), eltanexor (KPT-8602, NSC794443), venetoclax (NSC766270), ceralasertib (NSC777638), bortezomib (NSC756655), olaparib (NSC753686), talazoparib (NSC767125), alisertib (NSC759677), peposertib (NSC802822), gemcitabine (NSC613327), 5-fluorouracil (NSC19893), SN-38 (NSC673596), oxaliplatin (NSC266046), paclitaxel (NSC125973), and doxorubicin (NSC123127), were obtained from the National Cancer Institute (NCI) Developmental Therapeutics Program Chemical Repository. The FDA-approved anticancer drug set is available from the Developmental Therapeutics Program at https://dtp.cancer.gov/organization/dscb/obtaining/available plates.htm. […] The stock solutions were prepared in dimethyl sulfoxide (DMSO, Sigma-Aldrich, St. Louis, MO, cat. D2650), except for the platinum complexes which were prepared in saline (Quality Biological, Gaithersburg, MD, cat. 114-055-101), at 800-fold the tested concentration and stored at -70 degrees C prior to their use. All drugs and investigational agents were tested over a range starting from a high concentration at or near the clinical Cmax and decreasing in half-log increments. If the clinical Cmax for an agent had not been determined, the highest concentration tested was 10 microM.
# Cell Culture. All cells were maintained in an incubator at 37 degrees C and 5% CO2 with 95% humidity. The PDC lines were cultured according to standard operating procedures established by the NCI PDMR. Briefly, all PDCs were thawed and cultured in Matrigel-coated flasks prepared with a working solution of 1X Ham's F-12 nutrient mix, without supplementation (Invitrogen, Waltham, MA, cat. 11765054), 100 U/mL penicillin-streptomycin (Invitrogen, cat. 15140122), and 2.5% Matrigel (Corning Inc., Corning, NY, cat. 354248) for the first three passages. The 947758-054-R-J2-PDC line was cultured in 6B/Colon 1A media, which includes advanced DMEM/F-12 (Thermo Fisher Scientific, cat. 12634028), 10 mM HEPES (Thermo Fisher Scientific, cat. 15630080), 1X GlutaMAX supplement (Thermo Fisher Scientific, cat. 35050061), 0.1 mg/mL primocin (InvivoGen, cat. ant-pm-2), 10% defined fetal bovine serum, heat inactivated (HyClone Laboratories Inc., cat. SH30070.03HI), 1.25 mM N-Acetyl-L-cysteine (Sigma-Aldrich, cat. A9165), 10 mM nicotinamide (Sigma-Aldrich, cat. N0636), 1X B-27 supplement (Thermo Fisher Scientific, cat. 17504044), 1X N-2 supplement (Thermo Fisher Scientific, cat. 17502048), and 10 microM Y-27632 dihydrochloride (Tocris Bioscience, cat. 1254). The 876862-298-R-J1-PDC was cultured in 6E media, which includes all 6B/Colon 1A media components plus 50% L-WRN conditioned media (ATCC, cat. CRL-3276), 50 ng/mL recombinant human EGF recombinant protein (hEGF; Thermo Fisher Scientific, cat. PHG0311), 10 ng/mL recombinant human fibroblast growth factor 10 (hGFG-10; PeproTech, cat. 100-26), 1 ng/mL recombinant human fibroblast growth factor 2 (hFGF-2; PeproTech, cat. 100-18B), and 1 µM prostaglandin E2 (PGE2; Tocris, cat. 2296). The 227483-062-R1-J1-PDC line was cultured in Panc media, containing all 6E components except hFGF-2, with the addition of 500 nM SB-431542 (Selleckchem, cat. S1067) and 10 nM gastrin (Tocris, cat. 3006). […]
# [1] = curve of first compound, second compound 0.0316 µM
# [2] = curve of first compound, second compound 0.1 µM
# [3] = curve of first compound, second compound 0.316 µM
# [4] = curve of first compound, second compound 1 µM
# [5] = curve of first compound, second compound 3.16 µM
# [6] = curve of first compound, second compound 10 µM
# [7] = second compound 0.0316 µM, first compound 0.0316 µM
# [8] = second compound 0.0316 µM, first compound 0.1 µM
# [9] = second compound 0.0316 µM, first compound 0.316 µM
# [10] = second compound 0.0316 µM, first compound 1 µM
# [11] = second compound 0.0316 µM, first compound 3.16 µM
# [12] = second compound 0.0316 µM, first compound 10 µM
# [13] = second compound 0.1 µM, first compound 0.0316 µM
# [14] = second compound 0.1 µM, first compound 0.1 µM
# [15] = second compound 0.1 µM, first compound 0.316 µM
# [16] = second compound 0.1 µM, first compound 1 µM
# [17] = second compound 0.1 µM, first compound 3.16 µM
# [18] = second compound 0.1 µM, first compound 10 µM
# [19] = second compound 0.316 µM, first compound 0.0316 µM
# [20] = second compound 0.316 µM, first compound 0.1 µM
# [21] = second compound 0.316 µM, first compound 0.316 µM
# [22] = second compound 0.316 µM, first compound 1 µM
# [23] = second compound 0.316 µM, first compound 3.16 µM
# [24] = second compound 0.316 µM, first compound 10 µM
# [25] = second compound 1 µM, first compound 0.0316 µM
# [26] = second compound 1 µM, first compound 0.1 µM
# [27] = second compound 1 µM, first compound 0.316 µM
# [28] = second compound 1 µM, first compound 1 µM
# [29] = second compound 1 µM, first compound 3.16 µM
# [30] = second compound 1 µM, first compound 10 µM
# [31] = second compound 3.16 µM, first compound 0.0316 µM
# [32] = second compound 3.16 µM, first compound 0.1 µM
# [33] = second compound 3.16 µM, first compound 0.316 µM
# [34] = second compound 3.16 µM, first compound 1 µM
# [35] = second compound 3.16 µM, first compound 3.16 µM
# [36] = second compound 3.16 µM, first compound 10 µM
# [37] = second compound 10 µM, first compound 0.0316 µM
# [38] = second compound 10 µM, first compound 0.1 µM
# [39] = second compound 10 µM, first compound 0.316 µM
# [40] = second compound 10 µM, first compound 1 µM
# [41] = second compound 10 µM, first compound 3.16 µM
# [42] = second compound 10 µM, first compound 10 µM
# 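Further: spheroids exposed to compounds for 7 days before readout.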
# 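Wherever viability, T/C is given: 100% = DMSO vehicle control wells.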
smiles,measurement,setting,value
C=C(F)C(=O)N1CCN(c2nc(OCC3CCCN3C)nc3c2CCN(c2cccc4cccc(Cl)c24)C3)CC1CC#N (stereo not drawn),"viability, T/C",compound 0.0316 µM,88.1% and 109%
same,"viability, T/C",compound 0.1 µM,81.2% and 96.7%
same,"viability, T/C",compound 0.316 µM,70.4% and 103%
same,"viability, T/C",compound 1 µM,116% and 111%
same,"viability, T/C",compound 3.16 µM,103% and 83%
same,"viability, T/C",compound 10 µM,0.27% and 0.16%
same,IC50,curve of compound,5350 nM and 5000 nM
Cn1ncnc1[C@H]1c2n[nH]c(=O)c3cc(F)cc(c23)N[C@@H]1c1ccc(F)cc1,"viability, T/C",compound 0.000316 µM,106% and 93.2%
same,"viability, T/C",compound 0.001 µM,93.8% and 102%
same,"viability, T/C",compound 0.00316 µM,111% and 107%
same,"viability, T/C",compound 0.01 µM,107% and 91%
same,"viability, T/C",compound 0.0316 µM,96.3% and 95.3%
same,"viability, T/C",compound 0.1 µM,87.1% and 99.8%
same,IC50,curve of compound,> 100 nM
COc1ccc([C@@H](O)c2cc(-c3ncnc4cc(N5CCOCC5)ccc34)c(F)cc2Cl)nn1 + CN1CCN(c2cc(C(=O)Nc3cc4cc(-c5cnn(C)c5)ccc4cn3)ccn2)CC1,IC50,[1],> 10000 nM
same,IC50,[2],6170 nM
same,IC50,[3],< 31.6 nM
same,IC50,[4],< 31.6 nM
same,IC50,[5],< 31.6 nM
same,IC50,[6],< 31.6 nM
same,"viability, T/C",[7],106%
same,"viability, T/C",[8],104%
same,"viability, T/C",[9],90.4%
same,"viability, T/C",[10],87%
same,"viability, T/C",[11],70.3%
same,"viability, T/C",[12],50.1%
same,"viability, T/C",[13],97.9%
same,"viability, T/C",[14],85%
same,"viability, T/C",[15],80.1%
same,"viability, T/C",[16],73.6%
same,"viability, T/C",[17],67.5%
same,"viability, T/C",[18],38.8%
same,"viability, T/C",[19],30.2%
same,"viability, T/C",[20],22.3%
same,"viability, T/C",[21],26.9%
same,"viability, T/C",[22],20.3%
same,"viability, T/C",[23],25%
same,"viability, T/C",[24],11.8%
same,"viability, T/C",[25],5.5%
same,"viability, T/C",[26],4.93%
same,"viability, T/C",[27],4.05%
same,"viability, T/C",[28],4.46%
same,"viability, T/C",[29],4.87%
same,"viability, T/C",[30],5.56%
same,"viability, T/C",[31],6.52%
same,"viability, T/C",[32],6.92%
same,"viability, T/C",[33],5.95%
same,"viability, T/C",[34],6.56%
same,"viability, T/C",[35],7.75%
same,"viability, T/C",[36],6.44%
same,"viability, T/C",[37],1.12%
same,"viability, T/C",[38],1.29%
same,"viability, T/C",[39],1.09%
same,"viability, T/C",[40],1.69%
same,"viability, T/C",[41],2.12%
same,"viability, T/C",[42],1.23%
CC(Nc1ccc2c(c1)OCCn1cc(N3C(=O)OCC3C(F)F)nc1-2)C(N)=O (stereo not drawn) + CN1CCN(c2cc(C(=O)Nc3cc4cc(-c5cnn(C)c5)ccc4cn3)ccn2)CC1,IC50,[1],829 nM
same,IC50,[2],428 nM
same,IC50,[3],< 31.6 nM
same,IC50,[4],< 31.6 nM
same,IC50,[5],< 31.6 nM
same,IC50,[6],< 31.6 nM
same,"viability, T/C",[7],98.6%
same,"viability, T/C",[8],85.9%
same,"viability, T/C",[9],66.1%
same,"viability, T/C",[10],47.1%
same,"viability, T/C",[11],30.2%
same,"viability, T/C",[12],19.6%
same,"viability, T/C",[13],89.7%
same,"viability, T/C",[14],71.6%
same,"viability, T/C",[15],54.1%
same,"viability, T/C",[16],37.7%
same,"viability, T/C",[17],27.5%
same,"viability, T/C",[18],15.9%
same,"viability, T/C",[19],30.8%
same,"viability, T/C",[20],28.4%
same,"viability, T/C",[21],24%
same,"viability, T/C",[22],16.5%
same,"viability, T/C",[23],11.1%
same,"viability, T/C",[24],6.49%
same,"viability, T/C",[25],3.7%
same,"viability, T/C",[26],3.4%
same,"viability, T/C",[27],2.95%
same,"viability, T/C",[28],2.95%
same,"viability, T/C",[29],2.35%
same,"viability, T/C",[30],1.83%
same,"viability, T/C",[31],6.09%
same,"viability, T/C",[32],5.94%
same,"viability, T/C",[33],5.25%
same,"viability, T/C",[34],4.35%
same,"viability, T/C",[35],3.81%
same,"viability, T/C",[36],3.86%
same,"viability, T/C",[37],2.15%
same,"viability, T/C",[38],2.04%
same,"viability, T/C",[39],1.6%
same,"viability, T/C",[40],1.88%
same,"viability, T/C",[41],1.85%
same,"viability, T/C",[42],1.04%
